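Following 48 hours of exposure in 96-well plates, responses at five concentrations were used to interpolate endpoints linearly. Here, GI50 denotes the concentration required for 50% inhibition of growth. TGI denotes the concentration required for complete inhibition of growth.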
Tests used:
Assay in all cases: DTP human tumour cell line panel, 48 h
NCI-H522 lung = test system: NCI-H522 lung
COLO 205 colon = test system: COLO 205 colon
NCI/ADR-RES ovarian = test system: NCI/ADR-RES ovarian
DU-145 prostate = test system: DU-145 prostate
LOX IMVI melanoma = test system: LOX IMVI melanoma
NCI-H23 lung = test system: NCI-H23 lung
KM12 colon = test system: KM12 colon
UACC-62 melanoma = test system: UACC-62 melanoma
786-0 renal = test system: 786-0 renal
M14 melanoma = test system: M14 melanoma

SMILES | TGI (NCI-H522 lung) [µM] | TGI (COLO 205 colon) [µM] | TGI (NCI/ADR-RES ovarian) [µM] | TGI (DU-145 prostate) [µM] | TGI (LOX IMVI melanoma) [µM] | TGI (NCI-H23 lung) [µM] | TGI (KM12 colon) [µM] | TGI (UACC-62 melanoma) [µM] | TGI (786-0 renal) [µM] | TGI (M14 melanoma) [µM] | GI50 (NCI-H522 lung) [µM] | GI50 (COLO 205 colon) [µM] | GI50 (M14 melanoma) [µM] | GI50 (NCI/ADR-RES ovarian) [µM] | GI50 (DU-145 prostate) [µM] | GI50 (LOX IMVI melanoma) [µM] | GI50 (NCI-H23 lung) [µM] | GI50 (KM12 colon) [µM] | GI50 (UACC-62 melanoma) [µM]
Cc1ccc(N=c2oc3c(ccc4ccccc43)nc2Nc2ccc(C)cc2)cc1 | > 100 | > 100 | > 100 | > 100 | > 100 | > 100 | > 100 | > 100 | > 100 | – | – | – | – | – | – | – | – | – | –
COc1c(Cl)ccc(Cl)c1-c1nnc(-c2c(Cl)c(Cl)c(Cl)c(Cl)c2-c2nc3ccc(C(=O)c4ccccc4)cc3[nH]2)o1 | > 100 | 78.2 | > 100 | > 100 | > 100 | > 100 | > 100 | – | > 100 | > 100 | – | – | – | – | – | – | – | – | –
COc1cc(/C=C/C(=O)OC[C@]23O[C@H]2[C@@H](OC2OC(C)C(O)C(O)C2O)C2C=CO[C@@H](OC4OC(CO)C(O)C(O)C4O)C23)ccc1O (stereo partly specified) | > 100 | > 100 | > 100 | > 100 | > 100 | > 100 | > 100 | > 100 | > 100 | > 100 | – | – | – | – | – | – | – | – | –
NC1=CN2c3ccccc3N(CC(=O)N3CCOCC3)C2C=C1 (stereo unspecified) | > 100 | > 100 | > 100 | > 100 | > 100 | > 100 | > 100 | > 100 | > 100 | > 100 | – | – | – | – | – | – | – | – | –
O=C(CSCC(=O)N/N=C/c1ccc(F)cc1)N/N=C/c1ccc(F)cc1 | > 100 | > 100 | > 100 | > 100 | – | > 100 | > 100 | > 100 | > 100 | > 100 | – | – | – | – | – | – | – | – | –
O=C1OS2(OC(=O)c3cccc4cccc2c34)c2ccccc21 (stereo unspecified) | > 100 | > 100 | > 100 | > 100 | > 100 | > 100 | > 100 | – | > 100 | > 100 | – | – | – | – | – | – | – | – | –
C/C(=C/CC[C@](C)(OC1OC(CO)C(O)C(O)C1OC1OC(C)C(O)C(O)C1O)[C@H]1CC[C@]2(C)[C@@H]1CC[C@@H]1[C@@]3(C)CC[C@H](O)C(C)(C)[C@@H]3C[C@H](O)[C@]12C)CO (stereo partly specified) | > 100 | > 100 | > 100 | > 100 | > 100 | > 100 | > 100 | > 100 | > 100 | > 100 | – | – | – | – | – | – | – | – | –
NC(=O)c1ccc(N)nc1 | > 400 | > 400 | > 400 | > 400 | > 400 | > 400 | > 400 | > 400 | > 400 | > 400 | – | – | – | – | – | – | – | – | –
COc1cc2[nH]c(=O)[nH]c2c2c(C)c[nH]c12 | > 100 | > 100 | > 100 | > 100 | > 100 | > 100 | > 100 | > 100 | > 100 | > 100 | – | – | – | – | – | – | – | – | –
C=CCn1c(-c2ccc(N=NNc3ccc(-c4n[nH]c(=S)n4CC=C)cc3)cc2)n[nH]c1=S | > 100 | > 100 | 61.4 | 16 | > 100 | > 100 | – | – | 25.4 | > 100 | – | – | – | – | – | – | – | – | –
C(=C/c1ccc2nc(-c3ccc(/C=C/C=N/NC4=NCCCN4)cc3)cn2c1)/C=N/NC1=NCCCN1 | 34.3 | > 100 | 51.7 | 41.6 | – | > 100 | > 100 | > 100 | > 100 | > 100 | – | – | – | – | – | – | – | – | –
O=C(NCCc1ccc(F)cc1)c1cc(/C=C/c2cc(O)ccc2O)ccc1O | 4.88 | 13.6 | 10.7 | 33.2 | 14 | 13.3 | 38 | 4.85 | 5.03 | 12.5 | – | – | – | – | – | – | – | – | –
CC(CCC(=O)O)(c1cc(Br)c(O)c(Br)c1)c1cc(Br)c(O)c(Br)c1 | > 100 | > 100 | > 100 | > 100 | > 100 | > 100 | > 100 | > 100 | > 100 | > 100 | – | – | – | – | – | – | – | – | –
O=c1[nH]c(=O)n(COCCO)cc1-c1ccccc1 | > 100 | > 100 | > 100 | > 100 | > 100 | > 100 | > 100 | > 100 | > 100 | > 100 | – | – | – | – | – | – | – | – | –
C/C(=N\NC(=S)N/N=C(\C)c1ccccn1)c1ccccn1 | > 100 | > 100 | 27 | > 100 | > 100 | > 100 | > 100 | 15 | > 100 | 4.88 | – | – | – | – | – | – | – | – | –
Clc1ccc2nc3c(c(-c4ccccc4)nn3-c3ccccc3)c(-c3ccccc3)c2c1 | > 100 | > 100 | > 100 | > 100 | > 100 | > 100 | > 100 | > 100 | > 100 | > 100 | – | – | – | – | – | – | – | – | –
O=C(/C=C/c1ccco1)c1ccc(Nc2ccnc3cc(Cl)ccc23)cc1 | > 100 | > 100 | > 100 | > 100 | > 100 | > 100 | > 100 | > 100 | – | > 100 | > 100 | 39.2 | 70.7 | 75.8 | 9.33 | 6.41 | > 100 | 3.17 | > 100
CCOC(=O)C(NC(=O)Nc1ccccc1)(Nc1cccc(Cl)c1)C(F)(F)F (stereo unspecified) | > 100 | > 100 | > 100 | > 100 | > 100 | > 100 | > 100 | > 100 | > 100 | > 100 | – | – | – | – | – | – | – | – | –
COc1cc(CNc2nc3cc(C(F)(F)F)ccc3nc2C(=O)O)cc(OC)c1OC | > 100 | 53.7 | 76.4 | > 100 | > 100 | > 100 | 78.2 | 28.9 | 59.1 | 35.7 | – | – | – | – | – | – | – | – | –
O=C(OCc1ccccc1[N+](=O)[O-])N1c2ccccc2[C@@]23O[C@]24CCC[C@H]3C#C/C=C\C#C[C@H]14 | > 100 | > 100 | > 100 | > 100 | > 100 | > 100 | > 100 | > 100 | > 100 | > 100 | – | – | – | – | – | – | – | – | –

Source: PubChem BioAssay (NCI)
